Measured values published in ChEMBL document CHEMBL5108009, “Positron Emission Tomography (PET) Imaging Tracers for Serotonin Receptors” (J Med Chem, 2022).

What was measured:
[1] = target: T1, 5-hydroxytryptamine receptor 1A (Homo sapiens, UniProt P08908); experiment: Binding affinity to 5-HT1A receptor in human HeLa cell membrane assessed as inhibition constant by Packard top-counter analysis; format: cell membranes
T1 sequence (P08908 whole entry): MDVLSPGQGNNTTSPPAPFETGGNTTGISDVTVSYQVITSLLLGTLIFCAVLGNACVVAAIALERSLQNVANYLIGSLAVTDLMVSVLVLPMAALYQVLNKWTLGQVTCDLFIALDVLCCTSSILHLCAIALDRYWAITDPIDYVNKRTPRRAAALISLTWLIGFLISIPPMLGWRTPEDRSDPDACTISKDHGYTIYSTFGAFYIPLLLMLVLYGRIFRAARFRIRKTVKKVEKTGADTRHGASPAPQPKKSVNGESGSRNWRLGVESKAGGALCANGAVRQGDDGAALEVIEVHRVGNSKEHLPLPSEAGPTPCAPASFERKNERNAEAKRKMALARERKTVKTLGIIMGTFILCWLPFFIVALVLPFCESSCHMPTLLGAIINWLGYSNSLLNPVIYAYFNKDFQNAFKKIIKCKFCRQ

[2] = target: T2, 5-hydroxytryptamine receptor 1A (Rattus norvegicus, UniProt P19327)
T2 sequence (P19327 whole entry): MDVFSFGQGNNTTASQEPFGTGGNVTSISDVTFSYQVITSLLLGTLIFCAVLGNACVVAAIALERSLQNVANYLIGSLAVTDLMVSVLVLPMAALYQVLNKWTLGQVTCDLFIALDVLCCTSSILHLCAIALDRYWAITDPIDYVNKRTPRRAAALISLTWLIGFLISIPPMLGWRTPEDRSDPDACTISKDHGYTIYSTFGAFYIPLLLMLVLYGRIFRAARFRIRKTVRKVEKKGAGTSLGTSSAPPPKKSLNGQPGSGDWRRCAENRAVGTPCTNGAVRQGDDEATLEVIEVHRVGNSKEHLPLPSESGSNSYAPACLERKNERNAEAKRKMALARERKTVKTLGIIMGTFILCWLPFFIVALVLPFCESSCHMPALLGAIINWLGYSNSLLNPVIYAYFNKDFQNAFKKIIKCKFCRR

[3] = target: T1, 5-hydroxytryptamine receptor 1A
[4] = target: T3, 5-hydroxytryptamine receptor 7 (Homo sapiens, UniProt P34969); experiment: Binding affinity to human recombinant 5-HT7 receptor expressed in CHO cells assessed as inhibition constant; format: cell-based
T3 sequence (P34969 whole entry): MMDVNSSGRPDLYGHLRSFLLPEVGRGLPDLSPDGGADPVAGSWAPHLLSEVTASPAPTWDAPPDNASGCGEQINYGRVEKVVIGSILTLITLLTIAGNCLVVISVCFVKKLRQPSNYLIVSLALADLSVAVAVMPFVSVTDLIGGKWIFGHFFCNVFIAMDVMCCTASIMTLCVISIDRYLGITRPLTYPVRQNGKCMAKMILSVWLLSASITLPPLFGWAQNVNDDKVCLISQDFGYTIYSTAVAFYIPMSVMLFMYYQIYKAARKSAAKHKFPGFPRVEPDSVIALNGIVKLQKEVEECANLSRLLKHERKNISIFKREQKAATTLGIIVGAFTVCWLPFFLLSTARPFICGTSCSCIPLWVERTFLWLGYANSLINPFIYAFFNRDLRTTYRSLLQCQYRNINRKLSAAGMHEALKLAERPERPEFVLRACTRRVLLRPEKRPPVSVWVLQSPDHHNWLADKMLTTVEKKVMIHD

[5] = Ratio of drug uptake in rat temporal cortex to cerebellum by measuring radioactivity at 20 mins postinjection; format: ADME, organism-based; conditions: in vivo
[6] = Ratio of drug uptake in rat temporal cortex to cerebellum by measuring radioactivity at 10 mins postinjection; format: ADME, organism-based; conditions: in vivo
[7] = Drug uptake in pig brain cortex assessed as non-displaceable binding potential; format: ADME, tissue-based, Sus scrofa; conditions: in vivo
[8] = target: 5-hydroxytryptamine receptor 2A (Homo sapiens, UniProt P28223)
Sequence of 5-hydroxytryptamine receptor 2A (P28223 whole entry): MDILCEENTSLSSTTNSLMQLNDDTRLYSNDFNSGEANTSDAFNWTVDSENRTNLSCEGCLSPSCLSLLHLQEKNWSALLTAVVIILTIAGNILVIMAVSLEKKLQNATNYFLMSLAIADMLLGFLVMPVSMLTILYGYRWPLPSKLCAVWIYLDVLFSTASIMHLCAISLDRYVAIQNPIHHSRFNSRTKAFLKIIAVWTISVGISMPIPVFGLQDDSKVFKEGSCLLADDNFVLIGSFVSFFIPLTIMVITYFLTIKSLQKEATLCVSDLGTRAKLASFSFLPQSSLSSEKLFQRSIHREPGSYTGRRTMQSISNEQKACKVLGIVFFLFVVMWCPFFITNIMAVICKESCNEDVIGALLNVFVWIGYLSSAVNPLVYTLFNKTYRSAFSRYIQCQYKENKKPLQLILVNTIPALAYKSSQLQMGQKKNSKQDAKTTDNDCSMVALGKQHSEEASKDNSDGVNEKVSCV

[9] = Lipophilicity, logD of the compound at pH 7.4; format: physicochemical; conditions: buffer
[10] = Binding affinity to pig 5-HT1B receptor (unknown origin) assessed as inhibition constant
[11] = target: 5-hydroxytryptamine receptor 1B (Homo sapiens, UniProt P28222)
Sequence of 5-hydroxytryptamine receptor 1B (P28222 whole entry): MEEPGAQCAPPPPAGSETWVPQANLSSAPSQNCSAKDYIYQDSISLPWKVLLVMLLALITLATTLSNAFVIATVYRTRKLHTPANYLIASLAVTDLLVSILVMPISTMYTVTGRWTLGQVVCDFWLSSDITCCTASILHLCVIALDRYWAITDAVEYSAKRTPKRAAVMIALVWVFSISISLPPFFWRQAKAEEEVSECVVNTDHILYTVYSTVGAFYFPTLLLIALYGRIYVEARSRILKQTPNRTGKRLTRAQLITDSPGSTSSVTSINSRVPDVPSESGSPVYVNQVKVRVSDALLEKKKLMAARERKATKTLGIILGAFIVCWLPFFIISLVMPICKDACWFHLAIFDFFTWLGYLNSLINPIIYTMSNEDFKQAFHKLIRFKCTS

[12] = target: 5-hydroxytryptamine receptor 5A (Homo sapiens, UniProt P47898); experiment: Binding affinity to 5-HT5A receptor (unknown origin) assessed as inhibition constant
Sequence of 5-hydroxytryptamine receptor 5A (P47898 whole entry): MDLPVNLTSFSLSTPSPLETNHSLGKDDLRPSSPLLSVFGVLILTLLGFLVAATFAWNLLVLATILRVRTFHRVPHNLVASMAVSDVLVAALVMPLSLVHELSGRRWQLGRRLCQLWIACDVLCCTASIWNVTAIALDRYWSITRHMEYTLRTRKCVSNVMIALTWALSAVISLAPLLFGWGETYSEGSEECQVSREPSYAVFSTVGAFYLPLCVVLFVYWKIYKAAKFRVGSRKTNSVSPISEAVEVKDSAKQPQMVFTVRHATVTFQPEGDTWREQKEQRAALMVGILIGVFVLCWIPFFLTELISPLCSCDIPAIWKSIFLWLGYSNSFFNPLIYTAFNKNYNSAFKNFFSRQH

[13] = target: T3, 5-hydroxytryptamine receptor 7
[14] = target: 5-hydroxytryptamine receptor 2B (Homo sapiens, UniProt P41595)
Sequence of 5-hydroxytryptamine receptor 2B (P41595 whole entry): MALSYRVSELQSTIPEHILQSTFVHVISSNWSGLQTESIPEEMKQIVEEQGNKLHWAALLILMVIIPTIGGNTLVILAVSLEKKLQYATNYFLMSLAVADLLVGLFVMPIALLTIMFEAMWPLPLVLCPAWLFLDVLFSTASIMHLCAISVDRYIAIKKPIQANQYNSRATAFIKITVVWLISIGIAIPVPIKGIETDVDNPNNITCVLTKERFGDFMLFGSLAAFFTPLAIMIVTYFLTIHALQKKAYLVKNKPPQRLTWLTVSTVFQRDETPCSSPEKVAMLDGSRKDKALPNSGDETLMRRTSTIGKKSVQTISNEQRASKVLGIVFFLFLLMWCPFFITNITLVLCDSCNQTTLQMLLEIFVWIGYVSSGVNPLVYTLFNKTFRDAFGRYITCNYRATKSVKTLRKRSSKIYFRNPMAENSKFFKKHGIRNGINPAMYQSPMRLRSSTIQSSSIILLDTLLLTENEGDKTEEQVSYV

[15] = target: T1, 5-hydroxytryptamine receptor 1A; remark: listed apart in the source
[16] = target: T4, 5-hydroxytryptamine receptor 2C (Homo sapiens, UniProt P28335)
T4 sequence (P28335 whole entry): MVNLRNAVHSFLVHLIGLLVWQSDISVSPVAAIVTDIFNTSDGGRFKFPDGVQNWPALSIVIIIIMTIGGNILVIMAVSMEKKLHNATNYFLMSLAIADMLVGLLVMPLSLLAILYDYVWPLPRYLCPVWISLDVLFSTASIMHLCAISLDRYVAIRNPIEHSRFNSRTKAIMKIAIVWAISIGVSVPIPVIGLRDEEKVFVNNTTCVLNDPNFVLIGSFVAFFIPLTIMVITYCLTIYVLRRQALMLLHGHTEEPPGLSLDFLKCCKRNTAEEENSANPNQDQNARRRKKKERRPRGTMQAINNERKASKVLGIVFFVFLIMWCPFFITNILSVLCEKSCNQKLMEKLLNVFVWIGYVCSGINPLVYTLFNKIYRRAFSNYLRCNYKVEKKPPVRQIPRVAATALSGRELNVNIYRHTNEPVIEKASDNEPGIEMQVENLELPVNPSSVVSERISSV

[17] = target: 5-hydroxytryptamine receptor 1D (Homo sapiens, UniProt P28221); experiment: Binding affinity to 5-HT1D (unknown origin) assessed as inhibition constant
Sequence of 5-hydroxytryptamine receptor 1D (P28221 whole entry): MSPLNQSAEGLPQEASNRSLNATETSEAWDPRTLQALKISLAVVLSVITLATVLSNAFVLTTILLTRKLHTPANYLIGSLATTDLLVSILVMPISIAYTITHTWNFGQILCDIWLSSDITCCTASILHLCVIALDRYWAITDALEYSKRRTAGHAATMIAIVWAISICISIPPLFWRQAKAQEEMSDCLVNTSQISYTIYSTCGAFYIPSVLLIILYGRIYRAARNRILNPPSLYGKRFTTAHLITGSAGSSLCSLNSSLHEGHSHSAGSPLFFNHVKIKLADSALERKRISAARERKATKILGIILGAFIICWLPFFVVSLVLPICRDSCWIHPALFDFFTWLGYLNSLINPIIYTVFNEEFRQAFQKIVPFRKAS

[18] = target: T5, Alpha-1A adrenergic receptor (Homo sapiens, UniProt P35348); experiment: Binding affinity to alpha 1A adrenergic receptor (unknown origin) assessed as inhibition constant
T5 sequence (P35348 whole entry): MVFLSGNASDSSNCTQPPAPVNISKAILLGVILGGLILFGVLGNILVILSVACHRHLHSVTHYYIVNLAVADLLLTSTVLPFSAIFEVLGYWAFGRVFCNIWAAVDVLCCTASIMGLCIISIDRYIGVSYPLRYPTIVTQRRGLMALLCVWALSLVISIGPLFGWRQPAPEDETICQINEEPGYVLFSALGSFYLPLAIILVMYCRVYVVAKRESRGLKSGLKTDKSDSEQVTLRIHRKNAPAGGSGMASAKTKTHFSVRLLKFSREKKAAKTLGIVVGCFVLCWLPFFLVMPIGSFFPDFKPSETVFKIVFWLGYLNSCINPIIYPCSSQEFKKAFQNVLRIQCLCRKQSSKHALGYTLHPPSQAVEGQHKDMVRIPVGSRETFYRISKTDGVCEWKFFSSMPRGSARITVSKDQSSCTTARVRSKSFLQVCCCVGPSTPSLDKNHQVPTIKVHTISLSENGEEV

[19] = Ratio of drug uptake in rhesus monkey temporal cortex to cerebellum assessed as non-displaceable binding potential; format: ADME, tissue-based, Macaca mulatta; conditions: in vivo

Question: For COc1ccccc1N1CCN(CCN(C(=O)N2CCCCC2)c2cccc(F)n2)CC1, which Ki [1] is on record?
Answer: 0.51 nM

Question: Which IC50 [2] does the source give for CCCN(CCC)C1CCc2cccc(SC)c2C1 (racemic) here?
Answer: 1.2 nM

Question: With O=C(NCCN1CCN(c2cccc(C(F)(F)F)n2)CC1)c1ccc(F)cc1 as the compound, how does the Ki [3] read?
Answer: 0.5 nM

Question: For [11CH3]Oc1ccccc1N1CCN(CCCN/C(=N\C#N)c2ccccn2)CC1, which Ki [3] is on record?
Answer: 0.8 nM

Question: With O=C(NCCN1CCN(C2CCCc3ccccc32)CC1)c1ccc([18F])cc1 (stereo not drawn) as the compound, how does the Ki [3] read?
Answer: 0.5 nM

Question: For CC1CCN(CCC[C@H]2CCCN2S(=O)(=O)c2ccccc2F)CC1, which Ki [4] is on record?
Answer: 7.6 nM

Question: For COc1ccccc1N1CCN(CCN(c2cccc(Br)n2)[11C](=O)N2CCCCC2)CC1, which Ratio [5] is on record?
Answer: 3

Question: And the Ratio [6]?
Answer: 1.9

Question: Which IC50 [2] does the source give for COc1ccccc1N1CCN(CCNC(=O)C2CCCCC2)CC1 here?
Answer: 4.3 nM

Question: For COc1cc(CCNCc2ccccc2F)c(O[11CH3])cc1I, which Drug uptake [7] is on record?
Answer: 0.17

Question: For COc1c(Br)cc([18F])cc1CCNCc1ccccc1O, which Ki [8] is on record?
Answer: 7.2 nM

Question: For NC(=O)c1ccc(F)c2c1CC(N(C1CCC1)C1CCC1)CO2 (stereo not drawn), which Ki [3] is on record?
Answer: 0.6 nM

Question: What about the logD [9] of the same compound?
Answer: 2.5

Question: With CN1CCN(c2cc(F)cc3c(=O)cc(C(=O)Nc4ccc(N5CCOCC5)c(F)c4)oc23)CC1 as the compound, how does the Ki [10] read?
Answer: 0.13 nM

Question: With [11CH3]N1CCN(c2cccc3c2O[C@@H](C(=O)Nc2ccc(N4CCOCC4)cc2)CC3)CC1 as the compound, how does the Ki [10] read?
Answer: 0.3 nM

Question: Which Ki [11] does the source give for Cc1[nH]c2ccc(NC(=O)c3ccc(F)cc3)cc2c1CCN(C)C here?
Answer: > 260 nM

Question: And the Ki [12]?
Answer: > 260 nM

Question: What about the Ki [13] of the same compound?
Answer: > 260 nM

Question: What about the Ki [14] of the same compound?
Answer: > 260 nM

Question: And the Ki [15]?
Answer: > 260 nM

Question: And the Ki [16]?
Answer: > 260 nM

Question: What about the Ki [17] of the same compound?
Answer: > 260 nM

Question: With COc1ccccc1N1CCN(CCNC(=O)c2ccccn2)CC1 as the compound, how does the Ki [18] read?
Answer: 20 nM

Question: With COc1cccc2c1CCCC2CCCN1CCN(c2ccccc2)CC1 (stereo not drawn) as the compound, how does the Ki [3] read?
Answer: 0.5 nM

Question: For CN1CCN(c2cccc3c2C[C@H](NC(=O)c2ccc(OS(C)(=O)=O)cc2)CC3)CC1, which Ki [10] is on record?
Answer: 0.25 nM

Question: With COc1cc(CCN)c(O[11CH3])cc1I as the compound, how does the Drug uptake [7] read?
Answer: 0.17

Question: With CCc1cc(OC)cc(CCNCc2cccc(F)c2)c1OC as the compound, how does the Ki [8] read?
Answer: 2.4 nM

Question: Which results are given for CCC(=O)Nc1ccc2[nH]cc(C3CCN(C)CC3)c2n1?
Answer: Ki [11]: > 300 nM; Ki [12]: > 300 nM; Ki [13]: > 300 nM; Ki [14]: > 300 nM; Ki [15]: > 300 nM; Ki [16]: > 300 nM; Ki [17]: > 300 nM

Question: For COc1c(Br)cc([18F])cc1CCNCc1cccc2c1OCO2, which Ki [8] is on record?
Answer: 1.7 nM

Question: For COc1ccccc1N1CCN(CCCCc2ccc3c(c2)oc(=O)n3C)CC1, which Ki [3] is on record?
Answer: 0.04 nM

Question: For COc1ccccc1N1CCN(CCNC(=O)C2CC3CCC2CC3)CC1 (stereo not drawn), which IC50 [2] is on record?
Answer: 1 nM

Question: With O=S(=O)(c1ccccc1F)N1CCC[C@@H]1CCCN1CCN(c2ccc(Cl)cc2)CC1 as the compound, how does the Ki [4] read?
Answer: 0.22 nM

Question: Which Ki [4] does the source give for CC1CCN(CCC[C@H]2CCCN2S(=O)(=O)c2ccc(F)cc2)CC1 here?
Answer: 16 nM

Question: For [11CH3]N1CCN(c2cccc3c2OC(C(=O)Nc2ccc(N4CCOCC4)cc2)CC3)CC1 (racemic), which Ki [10] is on record?
Answer: 0.4 nM

Question: For COc1ccccc1N1CCN(CCN(c2ccccn2)C(=O)[C@H]2CC[C@H](C[18F])CC2)CC1, which Ki [3] is on record?
Answer: 0.9 nM

Question: What about the Ratio [19] of the same compound?
Answer: 7.7

Question: With CCCN(CCCSC)C1CCc2cccc(O)c2C1 (racemic) as the compound, how does the Ki [3] read?
Answer: 0.19 nM
